{
  "source": "patent US20210371455A1",
  "about": "“METHODS AND COMPOSITIONS COMPRISING REDUCED LEVEL OF HOST CELL PROTEINS” (Regeneron Pharmaceuticals, Inc., priority 2019, published 2021)",
  "key": {"[1]": {"target": "T1, bovine milk lipoprotein lipase (Bos taurus, UniProt P11151)", "T1 construct": "host or cells: bovine milk", "T1 sequence (P11151 29-478)": "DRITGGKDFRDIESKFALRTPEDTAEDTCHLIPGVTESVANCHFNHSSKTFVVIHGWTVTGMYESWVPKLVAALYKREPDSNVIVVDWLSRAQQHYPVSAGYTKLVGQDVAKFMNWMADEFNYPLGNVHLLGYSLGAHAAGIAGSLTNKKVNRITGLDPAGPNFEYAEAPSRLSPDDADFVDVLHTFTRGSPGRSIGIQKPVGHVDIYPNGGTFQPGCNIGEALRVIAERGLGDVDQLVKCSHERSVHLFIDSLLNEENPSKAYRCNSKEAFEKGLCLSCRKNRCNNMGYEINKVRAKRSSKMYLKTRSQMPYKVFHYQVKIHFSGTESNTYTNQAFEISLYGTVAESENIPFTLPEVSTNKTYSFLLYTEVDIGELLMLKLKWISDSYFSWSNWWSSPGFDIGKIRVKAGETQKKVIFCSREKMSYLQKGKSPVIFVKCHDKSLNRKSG", "settings": "cited from earlier work"}, "LAL [2]": {"target": "T2, LAL (Cricetulus griseus, UniProt G3HQY6)", "T2 sequence (G3HQY6 19-397)": "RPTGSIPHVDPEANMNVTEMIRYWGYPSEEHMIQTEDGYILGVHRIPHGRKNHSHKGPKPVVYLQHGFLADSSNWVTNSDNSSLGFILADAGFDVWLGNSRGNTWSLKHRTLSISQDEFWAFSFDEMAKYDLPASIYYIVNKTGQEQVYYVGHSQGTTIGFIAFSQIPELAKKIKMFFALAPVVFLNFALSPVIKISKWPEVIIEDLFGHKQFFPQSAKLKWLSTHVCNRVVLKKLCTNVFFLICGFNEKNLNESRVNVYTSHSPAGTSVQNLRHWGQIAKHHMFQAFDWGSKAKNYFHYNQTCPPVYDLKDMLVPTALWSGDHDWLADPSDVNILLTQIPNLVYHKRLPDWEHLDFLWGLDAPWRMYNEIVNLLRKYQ", "assay": "PS-20 remaining with LAL, with and without Lalistat-2", "assay_type": "biochemical", "set-up": "made in house; host or cells: CHO cells", "settings": "0.05% PS-20 and 5 μg/mL LAL; t=0, 8 days and 15 days", "protocol": "The incubated samples were analyzed at t=0, 8 days and 15 days."}, "LAL [3]": {"target": "T2, LAL", "assay": "PS-20 remaining in mAb formulation with and without Lalistat-2", "assay_type": "biochemical", "set-up": "endogenous in cells; host or cells: mAb production cells (CHO inferred)", "settings": "mAb-15 comprising 0.05% PS-20, 37° C., 15 days, 0.1 M Lalistat-2", "protocol": "mAb-15 comprising 0.05% PS-20 was incubated at 37° C. for 15 days in presence and absence of 0.1 M Lalistat-2. The incubated samples were analyzed at t=0, 8 days and […]."}, "LPL": {"target": "T3, LPL (Homo sapiens, UniProt P06858)", "T3 sequence (P06858 28-475)": "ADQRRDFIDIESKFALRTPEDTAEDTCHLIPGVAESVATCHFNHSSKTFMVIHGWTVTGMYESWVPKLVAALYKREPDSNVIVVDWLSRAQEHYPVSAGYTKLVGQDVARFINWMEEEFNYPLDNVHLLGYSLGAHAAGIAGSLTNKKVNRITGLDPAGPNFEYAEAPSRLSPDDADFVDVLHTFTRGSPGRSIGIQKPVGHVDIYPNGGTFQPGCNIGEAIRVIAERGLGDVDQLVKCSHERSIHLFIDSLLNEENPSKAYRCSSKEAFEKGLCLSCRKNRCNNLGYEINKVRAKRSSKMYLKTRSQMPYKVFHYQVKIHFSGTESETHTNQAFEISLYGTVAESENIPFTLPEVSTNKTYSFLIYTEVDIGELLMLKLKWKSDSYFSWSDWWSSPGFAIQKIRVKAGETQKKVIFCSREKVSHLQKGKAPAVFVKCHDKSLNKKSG", "assay": "PS-20 remaining with LPL, with and without Lalistat-2", "assay_type": "biochemical", "settings": "0.05% PS-20 and 10 μg/mL LPL; t=0, 8 days and 15 days", "protocol": "Thus, addition of Lalistat only causes inhibition of LAL […]. […] The incubated samples were analyzed at t=0, 8 days and 15 days. […] Therefore, if lalistat2 can inhibit lipase activity in mAbs completely, then it means the LPL detected from mAbs were not active or abundance are too low to degrade PS20. The PS20 degradation seen from recombinant LPL may either due to the only LPL in high concentration can degrade PS20, or due to unexpected impurities presented in the recombinant LPL."}, "[4]": {"target": "T4, lysosomal acid lipase (LAL) (Homo sapiens, UniProt P38571)", "T4 sequence (P38571 77-399)": "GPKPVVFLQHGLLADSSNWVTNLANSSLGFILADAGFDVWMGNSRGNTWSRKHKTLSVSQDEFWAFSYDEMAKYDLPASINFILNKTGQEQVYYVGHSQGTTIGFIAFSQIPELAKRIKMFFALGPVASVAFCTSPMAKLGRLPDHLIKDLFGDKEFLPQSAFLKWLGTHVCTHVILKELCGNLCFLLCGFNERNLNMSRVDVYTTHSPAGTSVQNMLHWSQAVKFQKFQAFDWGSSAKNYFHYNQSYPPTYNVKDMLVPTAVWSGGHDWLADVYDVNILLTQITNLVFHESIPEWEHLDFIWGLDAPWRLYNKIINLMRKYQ", "settings": "cited from earlier work"}},
  "data": [
    {"compound": "O=C(Oc1nsnc1N1CCCCC1)N1CCCCC1", "note": "[Lalistat 2]", "values": [
      {"measurement": "inhibition of bovine milk lipoprotein lipase", "setting": "[1]", "result": "does not exhibit inhibition"},
      {"measurement": "degradation of PS-20 in sample incubated with Lalistat-2", "setting": "LAL [2]", "result": "almost no degradation of PS-20"},
      {"measurement": "degradation of PS-20 in mAb formulation incubated with Lalistat-2", "setting": "LAL [3]", "result": "almost no degradation of PS-20"},
      {"measurement": "inhibition of LPL's activity (PS-20 remaining)", "setting": "LPL", "result": "cannot inhibit LPL's activity"},
      {"measurement": "IC50", "setting": "[4]", "result": 152, "unit": "nM"}
    ]}
  ]
}
